The results in this text go back to ChEMBL document CHEMBL1287722, “Azaindole N-methyl hydroxamic acids as HIV-1 integrase inhibitors-II. The impact of physicochemical properties on ADME and PK” (Bioorg Med Chem Lett, 2010).

SMILES strings stand for the structures. The source made the active and inactive calls. The calls are words filed in the database; no cut-off is given here.

The target in data set [1] is Human immunodeficiency virus type 1 integrase (Human immunodeficiency virus 1, UniProt Q7ZJM1). Put plainly: Inhibition of HIV1 RF integrase after 50 mins by strand transfer scintillation proximity assay. Background: Scintillation proximity formats need no separation of bound from free tracer.
Human immunodeficiency virus type 1 integrase, sequence (Q7ZJM1 whole entry): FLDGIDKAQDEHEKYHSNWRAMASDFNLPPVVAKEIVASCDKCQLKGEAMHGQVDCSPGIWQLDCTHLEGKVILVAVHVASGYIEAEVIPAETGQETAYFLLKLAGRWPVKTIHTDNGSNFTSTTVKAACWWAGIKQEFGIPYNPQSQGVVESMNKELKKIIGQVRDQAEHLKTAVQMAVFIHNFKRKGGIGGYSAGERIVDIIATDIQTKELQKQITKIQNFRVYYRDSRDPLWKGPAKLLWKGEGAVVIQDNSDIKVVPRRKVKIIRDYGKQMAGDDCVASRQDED
Data set [2] has as its system Human immunodeficiency virus 1. As to the kind of experiment: Antiviral activity against HIV1 RF infected in human CEM-SS cells assessed as inhibition of virus-induced cytopathic effect after 6 days by XTT assay. In kind it is functional, organism-based. Particulars: Human immunodeficiency virus 1, RF, 144 h. A general note: Cytopathic effects are the visible damage that an infection or toxin causes in cultured cells.

Data set [3] in a line: Cytotoxicity against human CEM-SS cells by XTT assay. The data set is classed as cell-based. On the technique in general: Tetrazolium dyes change colour on reduction, which living cells bring about.
Data set [4] in a line: Metabolic stability in human hepatocyte assessed as extraction ratio at 4 hrs. In kind it is ADME, cell-based. Conditions: hepatocytes.
Data set [5] is described as follows: Plasma clearance in dog at 1 mg/kg, iv and 5 mg/kg, po. In kind it is ADME, organism-based, Canis lupus familiaris.
Data set [6] is described as follows: Volume of distribution at steady state in dog at 1 mg/kg, iv and 5 mg/kg, po. In kind it is ADME, organism-based, Canis lupus familiaris. Particulars: in vivo, read-out: Vdss.
Data set [7] is described as follows: Half life in dog at 1 mg/kg, iv and 5 mg/kg, po. The data set is classed as ADME, organism-based, Canis lupus familiaris. Particulars: in vivo.
A short description of data set [8]: Oral bioavailability in dog at 1 mg/kg, iv and 5 mg/kg, po. The data set is classed as ADME, organism-based, Canis lupus familiaris. Particulars: in vivo.
The next data set deals with T1, Cytochrome P450 1A2 (Homo sapiens, UniProt P05177).
T1 sequence (P05177 whole entry): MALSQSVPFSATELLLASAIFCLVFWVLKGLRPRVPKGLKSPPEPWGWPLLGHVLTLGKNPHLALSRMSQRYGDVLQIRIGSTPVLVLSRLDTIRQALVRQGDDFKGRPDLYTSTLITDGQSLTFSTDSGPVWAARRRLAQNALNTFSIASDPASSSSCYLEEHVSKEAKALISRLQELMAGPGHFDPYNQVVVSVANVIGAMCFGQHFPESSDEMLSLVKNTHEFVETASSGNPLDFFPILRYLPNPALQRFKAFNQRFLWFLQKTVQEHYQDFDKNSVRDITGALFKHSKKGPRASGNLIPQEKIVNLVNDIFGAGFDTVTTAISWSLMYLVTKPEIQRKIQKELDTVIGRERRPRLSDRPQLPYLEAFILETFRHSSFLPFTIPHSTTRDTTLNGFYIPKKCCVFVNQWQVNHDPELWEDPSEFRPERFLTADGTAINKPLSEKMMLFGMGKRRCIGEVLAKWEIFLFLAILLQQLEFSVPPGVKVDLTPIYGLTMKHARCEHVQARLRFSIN
As to the kind of experiment: Inhibition of CYP1A2. The data set is classed as ADME.

The target of the next data set is T2, Cytochrome P450 2C8 (Homo sapiens, UniProt P10632).
T2 sequence (P10632 whole entry): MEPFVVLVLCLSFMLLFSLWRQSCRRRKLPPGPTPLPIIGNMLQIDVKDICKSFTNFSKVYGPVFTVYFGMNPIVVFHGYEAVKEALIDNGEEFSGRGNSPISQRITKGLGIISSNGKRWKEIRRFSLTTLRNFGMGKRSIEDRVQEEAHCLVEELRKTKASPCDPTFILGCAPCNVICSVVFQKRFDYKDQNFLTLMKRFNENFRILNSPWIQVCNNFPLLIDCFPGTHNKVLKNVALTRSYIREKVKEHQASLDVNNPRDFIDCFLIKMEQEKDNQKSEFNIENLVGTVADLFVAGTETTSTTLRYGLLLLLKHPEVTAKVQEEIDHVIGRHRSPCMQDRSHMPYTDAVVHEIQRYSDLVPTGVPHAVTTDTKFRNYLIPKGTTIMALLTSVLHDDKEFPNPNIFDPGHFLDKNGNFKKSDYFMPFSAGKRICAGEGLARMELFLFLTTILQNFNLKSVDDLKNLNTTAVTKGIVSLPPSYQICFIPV
As to the kind of experiment: Inhibition of CYP2C8. In kind it is ADME.

For the next data set, the target named is Cytochrome P450 2D6 (Homo sapiens, UniProt P10635). Put plainly: Inhibition of CYP2D6. In kind it is ADME.
Cytochrome P450 2D6, sequence (P10635 whole entry): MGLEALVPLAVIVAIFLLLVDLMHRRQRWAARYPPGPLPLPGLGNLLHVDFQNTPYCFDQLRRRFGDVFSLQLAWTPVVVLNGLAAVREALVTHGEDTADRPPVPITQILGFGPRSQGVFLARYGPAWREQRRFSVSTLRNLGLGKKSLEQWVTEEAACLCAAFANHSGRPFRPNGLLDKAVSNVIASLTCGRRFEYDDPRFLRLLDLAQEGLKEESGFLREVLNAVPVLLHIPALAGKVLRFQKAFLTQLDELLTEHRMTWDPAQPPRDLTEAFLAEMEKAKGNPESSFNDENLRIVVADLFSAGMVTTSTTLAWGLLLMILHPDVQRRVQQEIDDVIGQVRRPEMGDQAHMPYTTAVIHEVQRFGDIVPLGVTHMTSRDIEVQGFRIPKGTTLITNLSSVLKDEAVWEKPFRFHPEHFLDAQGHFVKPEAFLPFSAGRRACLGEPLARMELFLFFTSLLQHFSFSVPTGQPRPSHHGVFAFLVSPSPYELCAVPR
In the next data set the target is Cytochrome P450 3A4 (Homo sapiens, UniProt P08684). As to the kind of experiment: Inhibition of CYP3A4. In kind it is ADME.
Cytochrome P450 3A4, sequence (P08684 whole entry): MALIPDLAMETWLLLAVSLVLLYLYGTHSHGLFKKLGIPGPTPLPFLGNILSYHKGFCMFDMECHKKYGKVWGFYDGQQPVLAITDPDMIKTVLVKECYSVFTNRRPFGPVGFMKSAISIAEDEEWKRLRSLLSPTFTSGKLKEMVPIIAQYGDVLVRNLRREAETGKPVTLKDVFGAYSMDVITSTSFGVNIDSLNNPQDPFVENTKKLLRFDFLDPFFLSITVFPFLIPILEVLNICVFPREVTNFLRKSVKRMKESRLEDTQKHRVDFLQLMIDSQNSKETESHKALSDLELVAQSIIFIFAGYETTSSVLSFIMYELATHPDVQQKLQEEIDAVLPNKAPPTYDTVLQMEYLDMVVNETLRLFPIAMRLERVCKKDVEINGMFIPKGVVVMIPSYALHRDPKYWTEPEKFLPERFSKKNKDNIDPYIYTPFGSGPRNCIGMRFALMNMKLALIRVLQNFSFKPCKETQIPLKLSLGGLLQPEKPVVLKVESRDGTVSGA
The target of a further data set is Cytochrome P450 2C9 (Homo sapiens, UniProt P11712). Put plainly: Inhibition of CYP2C9. In kind it is ADME.
Cytochrome P450 2C9, sequence (P11712 whole entry): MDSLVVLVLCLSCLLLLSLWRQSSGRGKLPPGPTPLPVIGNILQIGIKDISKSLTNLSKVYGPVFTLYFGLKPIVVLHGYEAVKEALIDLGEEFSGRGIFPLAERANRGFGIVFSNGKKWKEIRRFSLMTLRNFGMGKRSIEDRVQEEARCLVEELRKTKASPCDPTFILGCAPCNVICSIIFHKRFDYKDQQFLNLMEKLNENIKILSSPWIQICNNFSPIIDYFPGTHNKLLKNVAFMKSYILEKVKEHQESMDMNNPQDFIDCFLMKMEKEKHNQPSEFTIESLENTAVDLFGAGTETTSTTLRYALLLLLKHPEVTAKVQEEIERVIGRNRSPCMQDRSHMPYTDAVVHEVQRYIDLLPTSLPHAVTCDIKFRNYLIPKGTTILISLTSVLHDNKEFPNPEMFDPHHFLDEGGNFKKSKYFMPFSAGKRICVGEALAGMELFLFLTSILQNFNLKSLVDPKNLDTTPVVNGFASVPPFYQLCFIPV
For another data set, the target named is Cytochrome P450 2C19 (Homo sapiens, UniProt P33261). Put plainly: Inhibition of CYP2C19. In kind it is ADME.
Cytochrome P450 2C19, sequence (P33261 whole entry): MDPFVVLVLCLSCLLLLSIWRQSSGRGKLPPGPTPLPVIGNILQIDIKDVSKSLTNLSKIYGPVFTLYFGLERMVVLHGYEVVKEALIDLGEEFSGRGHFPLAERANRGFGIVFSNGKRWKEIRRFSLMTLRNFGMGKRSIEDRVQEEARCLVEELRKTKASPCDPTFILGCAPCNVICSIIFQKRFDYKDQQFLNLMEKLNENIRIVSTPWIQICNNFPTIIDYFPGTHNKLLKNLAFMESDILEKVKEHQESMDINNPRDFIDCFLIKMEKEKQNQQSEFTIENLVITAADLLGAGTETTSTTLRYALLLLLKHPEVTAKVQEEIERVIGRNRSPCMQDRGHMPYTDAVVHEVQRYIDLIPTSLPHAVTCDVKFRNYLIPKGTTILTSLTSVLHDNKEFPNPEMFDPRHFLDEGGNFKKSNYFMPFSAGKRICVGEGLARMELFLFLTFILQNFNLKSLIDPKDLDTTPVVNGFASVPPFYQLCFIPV
Data set [9] addresses Voltage-gated inwardly rectifying potassium channel KCNH2 (Homo sapiens, UniProt Q12809). Put plainly: Inhibition of human ERG.
Data set [10] in a line: Inhibition of matrix metalloprotease.
Data set [11] in a line: Inhibition of magnesium dependent protein kinase.
Data set [12] in a line: Blood clearance in human. The data set is classed as ADME, organism-based. Particulars: whole blood.
A short description of data set [13]: Volume of distribution at steady state in human. The data set is classed as ADME, organism-based. Conditions: in vivo, read-out: Vdss.
The test system of another data set is Hepacivirus hominis. Put plainly: Inhibition of HCV RNA-directed RNA polymerase.
Data set [14] in a line: Oral bioavailability in human. In kind it is ADME, organism-based. Conditions: in vivo.

Voltage-gated inwardly rectifying potassium channel KCNH2, sequence (Q12809 whole entry): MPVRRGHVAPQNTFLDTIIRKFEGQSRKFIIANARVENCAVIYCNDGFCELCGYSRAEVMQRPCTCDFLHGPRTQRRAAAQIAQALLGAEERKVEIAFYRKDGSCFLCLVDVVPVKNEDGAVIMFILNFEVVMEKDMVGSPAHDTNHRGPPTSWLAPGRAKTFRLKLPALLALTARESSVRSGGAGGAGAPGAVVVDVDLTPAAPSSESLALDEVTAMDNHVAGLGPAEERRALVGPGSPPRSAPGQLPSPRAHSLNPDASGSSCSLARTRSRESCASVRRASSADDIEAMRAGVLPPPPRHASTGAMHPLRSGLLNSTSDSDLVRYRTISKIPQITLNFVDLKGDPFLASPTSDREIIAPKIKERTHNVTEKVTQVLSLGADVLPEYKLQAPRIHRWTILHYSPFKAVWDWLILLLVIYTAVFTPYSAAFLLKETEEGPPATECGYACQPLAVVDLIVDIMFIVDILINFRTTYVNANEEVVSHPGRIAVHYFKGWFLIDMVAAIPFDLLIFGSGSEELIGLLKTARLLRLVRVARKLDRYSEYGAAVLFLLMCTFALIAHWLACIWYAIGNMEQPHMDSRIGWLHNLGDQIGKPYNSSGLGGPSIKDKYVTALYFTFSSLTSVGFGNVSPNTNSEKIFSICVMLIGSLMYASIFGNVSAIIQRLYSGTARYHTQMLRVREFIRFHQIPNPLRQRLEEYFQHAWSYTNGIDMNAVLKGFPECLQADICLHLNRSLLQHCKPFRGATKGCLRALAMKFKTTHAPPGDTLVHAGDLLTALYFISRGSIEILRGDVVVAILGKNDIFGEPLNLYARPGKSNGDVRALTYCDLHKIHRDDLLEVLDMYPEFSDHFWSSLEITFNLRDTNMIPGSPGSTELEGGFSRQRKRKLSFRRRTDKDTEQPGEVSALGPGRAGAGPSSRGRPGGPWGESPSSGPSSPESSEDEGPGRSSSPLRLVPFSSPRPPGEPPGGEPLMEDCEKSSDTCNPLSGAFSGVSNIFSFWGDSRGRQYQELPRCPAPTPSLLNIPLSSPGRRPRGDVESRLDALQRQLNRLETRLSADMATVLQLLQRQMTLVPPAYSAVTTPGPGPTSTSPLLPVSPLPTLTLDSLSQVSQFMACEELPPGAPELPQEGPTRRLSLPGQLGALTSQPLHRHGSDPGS

Take `COCCOCc1cn(Cc2ccc(F)cc2)c2cnc(C(=O)N(C)O)cc12`: the IC50 in [1] amounted to 382 nM. Moreover, the EC50 in data set [2] was 29 nM. The molecule also showed a CC50 in data set [3] of more than 100000 nM. Besides, in data set [4], the hepatic extraction ratio at 4 h was 0.51.

With `CN1CCN(Cc2cn(Cc3ccc(F)cc3)c3cnc(C(=O)N(C)O)cc23)CC1`, the IC50 in data set [1] was 534 nM. In data set [2], the EC50 is 220 nM. In [3], the CC50 was more than 224000 nM. For the same molecule, in [4], the hepatic extraction ratio at 4 h came out at 0.55.

On to `CN(O)C(=O)c1cc2c(CN3CCC[C@@H]3C(N)=O)cn(Cc3ccc(F)cc3)c2cn1`, for which the EC50 in data set [2] was 80 nM. Also, the CC50 in [3] was more than 100000 nM.

For the molecule `CC(C)NC(=O)c1cn(Cc2ccc(F)cc2)c2cnc(C(=O)N(C)O)cc12`, the IC50 in [1] was 251 nM. Further, the EC50 in [2] stood at 110 nM. In data set [3], this molecule returned a cytotoxic concentration (CC50) of more than 100000 nM. Further, the hepatic extraction ratio at 4 h in data set [4] is 0.25.

The molecule `CN(O)C(=O)c1cc2c(C(=O)NCCN3CCOCC3)cn(Cc3ccc(F)cc3)c2cn1` returned a concentration for half-maximal inhibition (IC50) in data set [1] of 503 nM. Besides, the concentration for a half-maximal effect (EC50) in data set [2] stood at 210 nM. Also, the half-maximal cytotoxic concentration (CC50) in data set [3] is 32000 nM. In addition, in [4], the hepatic extraction ratio at 4 h was 0.25.

Molecule `CN(O)C(=O)c1cc2c(CN3CCNC(=O)C3)cn(Cc3ccc(F)cc3)c2cn1` returned an IC50 in data set [1] of 388 nM. Moreover, the EC50 in [2] was 150 nM. In [3], the CC50 was more than 100000 nM. Moreover, the hepatic extraction ratio at 4 h in data set [4] is 0.3. The clearance in data set [5] was 24 mL/min/kg. Also, in data set [6], the Vd is 1.8 L/kg. This molecule also had a half-life in data set [7] of 1.27 h. Also, the bioavailability in data set [8] stood at 20%.

In the case of `CN(O)C(=O)c1cc2c(COC3CCOCC3)cn(Cc3ccc(F)cc3)c2cn1`, the IC50 in [1] turned out to be 313 nM. Also, the EC50 in data set [2] was determined as 57 nM. For the same molecule, the CC50 in data set [3] was more than 100000 nM. The hepatic extraction ratio at 4 h in data set [4] amounted to 0.86.

`CN(O)C(=O)c1cc2c(CN3CCC[C@H]3C(N)=O)cn(Cc3ccc(F)cc3)c2cn1` gave a CC50 in data set [3] of 216000 nM. Moreover, the clearance in [5] came to 15 mL/min/kg; in [12], 5.5 mL/min/kg. For the same molecule, the Vd in data set [6] amounted to 2.32 L/kg; in data set [13], 2.15 L/kg. This molecule had a half-life in data set [7] of 6.2 h. The IC50 at Cytochrome P450 1A2, at Cytochrome P450 2C8, against Cytochrome P450 2D6, against Cytochrome P450 3A4, on Cytochrome P450 2C9 and on Cytochrome P450 2C19 was more than 30000 nM throughout. Besides, the IC50 in data set [9] was more than 30000 nM; in data set [10] it was more than 50000 nM; in [11] it was more than 1000 nM. The bioavailability in [8] was 53%; in data set [14], 41%. The inhibition entry in the data set on Hepacivirus hominis was “inactive”.

In turn, `COCc1cn(Cc2ccc(F)cc2)c2cnc(C(=O)N(C)O)cc12` returned a half-maximal inhibitory concentration (IC50) in data set [1] of 242 nM. Moreover, in data set [2], the EC50 was 41 nM. In [3], this molecule returned a CC50 of 266000 nM. Moreover, in data set [4], the hepatic extraction ratio at 4 h turned out to be 1.

Turning to `CN(O)C(=O)c1cc2c(CO)cn(Cc3ccc(F)cc3)c2cn1`, the IC50 in data set [1] is 145 nM. In data set [2], the EC50 was determined as 54 nM. In [3], the CC50 was more than 266000 nM. The hepatic extraction ratio at 4 h in [4] worked out at 1.

In the case of `CN(O)C(=O)c1cc2c(CCCN3CCOCC3)cn(Cc3ccc(F)cc3)c2cn1`, in [1], half-maximal inhibition (IC50) was put at 559 nM. The EC50 in data set [2] was 470 nM. This molecule also displayed a CC50 in [3] of more than 10000 nM. The hepatic extraction ratio at 4 h in data set [4] came to 0.98.

The molecule `CN(O)C(=O)c1cc2c(CCCO)cn(Cc3ccc(F)cc3)c2cn1` registered an IC50 in data set [1] of 340 nM. Further, the EC50 in data set [2] was found to be 41 nM. This molecule yielded a CC50 in data set [3] of more than 10000 nM. Further, in data set [4], the hepatic extraction ratio at 4 h was 1.

With `CN(O)C(=O)c1cc2c(C(=O)N3CCC[C@@H]3CO)cn(Cc3ccc(F)cc3)c2cn1`, half-maximal inhibition in [1] (IC50) required 319 nM. For the same molecule, in data set [2], the EC50 came out at 170 nM. In data set [3], the CC50 is more than 32000 nM. Besides, in data set [4], the hepatic extraction ratio at 4 h turned out to be 0.2.

In the case of `CN(O)C(=O)c1cc2ccn(Cc3ccc(F)cc3F)c2cn1`, the IC50 in [1] stood at 250 nM. Further, the EC50 in data set [2] is 39 nM. In addition, the cytotoxic concentration (CC50) in [3] was 200000 nM.

In data set [1], `CN(O)C(=O)c1cc2c(CN3CCC(O)C3)cn(Cc3ccc(F)cc3)c2cn1` (stereo not given) showed a half-maximal inhibitory concentration (IC50) of 1420 nM. For the same molecule, in data set [2], the EC50 came to 747 nM. This molecule also yielded a CC50 in data set [3] of more than 100000 nM. Besides, the hepatic extraction ratio at 4 h in data set [4] was found to be 0.55.

With `COCCOCCCc1cn(Cc2ccc(F)cc2)c2cnc(C(=O)N(C)O)cc12`, inhibition in data set [1] was half-maximal at 552 nM (IC50). Also, in [2], the EC50 was found to be 220 nM. The same molecule registered a CC50 in data set [3] of more than 10000 nM. Besides, the hepatic extraction ratio at 4 h in data set [4] was found to be 0.97.

In the case of `CN(O)C(=O)c1cc2ccn(Cc3ccc(F)cc3)c2cn1`, in data set [1], it took 250 nM to reach half-maximal inhibition (IC50). The same molecule gave a CC50 in data set [3] of 135000 nM.

Regarding `CCOCCOCc1cn(Cc2ccc(F)cc2)c2cnc(C(=O)N(C)O)cc12`, in [1], it took 308 nM to reach half-maximal inhibition (IC50). Also, the EC50 in [2] was found to be 57 nM. Moreover, it took 81000 nM to reach half-maximal cytotoxicity in data set [3] (CC50). For the same molecule, in data set [4], the hepatic extraction ratio at 4 h is 0.57.

For orientation: IC50 means the concentration needed to halve the response being measured. The term EC50 denotes the concentration that produces a half-maximal response. What is called CC50 is the concentration at which the toxic effect on the cells reaches its halfway point. Lower therefore signals greater toxicity to the cells. The half-life is how long it takes for the measured level to halve. A low value points to rapid decline. For orientation: bioavailability means dose-corrected exposure relative to a reference, in per cent.
